Substitutions are numbered along the chain they refer to. Where “and” joins values, the source holds several entries; their conditions need not be identical. Identical values can stand only once.
Key:
Experiment in all cases: HEK assay: α-Gal A activity in HEK-293 cell lysate with migalastat
Assay type in all cases: cell-based
[1] = biological target: T1, α-Gal A mutant form p.Tyr216Cys (c.647 A > G) (Homo sapiens, UniProt P06280, Y216C)
T1 construct: expressed in transfected cells; host or cells: HEK-293
T1 sequence (P06280 32-429 Y216C): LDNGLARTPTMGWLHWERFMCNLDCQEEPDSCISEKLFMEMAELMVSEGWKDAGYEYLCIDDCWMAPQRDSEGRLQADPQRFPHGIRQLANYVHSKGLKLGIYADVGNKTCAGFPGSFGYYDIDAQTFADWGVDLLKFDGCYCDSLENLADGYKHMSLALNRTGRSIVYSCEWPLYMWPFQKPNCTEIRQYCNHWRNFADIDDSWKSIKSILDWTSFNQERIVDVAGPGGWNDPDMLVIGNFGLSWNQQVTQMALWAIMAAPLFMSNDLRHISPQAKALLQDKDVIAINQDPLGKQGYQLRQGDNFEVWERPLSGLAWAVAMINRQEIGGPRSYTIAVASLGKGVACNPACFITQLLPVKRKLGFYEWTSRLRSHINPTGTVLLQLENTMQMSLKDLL
Method in brief: (§1)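 Transient HEK-293 expression of mutant α-Gal A; ±migalastat 17 nM–1 mM, 4–5 d; lysate α-Gal A by 4-MU-α-Gal fluorescence or western blot.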

[2] = biological target: T2, α-Gal A mutant form p.Gly325Arg (c.973G > C) (Homo sapiens, UniProt P06280, G325R)
T2 construct: expressed in transfected cells; host or cells: HEK-293
T2 sequence (P06280 32-429 G325R): T1 sequence (P06280 32-429 Y216C) with C185Y, G294R
Method in brief: as §1

[3] = biological target: T3, α-Gal A mutant form p.Gly183Asp (c.548 G > A) (Homo sapiens, UniProt P06280, G183D)
T3 construct: expressed in transfected cells; host or cells: HEK-293
T3 sequence (P06280 32-429 G183D): T1 sequence (P06280 32-429 Y216C) with G152D, C185Y
Method in brief: as §1

[4] = biological target: T4, α-Gal A mutant form p.Asp322Glu (c.966 C > A) (Homo sapiens, UniProt P06280, D322E)
T4 construct: expressed in transfected cells; host or cells: HEK-293
T4 sequence (P06280 32-429 D322E): T1 sequence (P06280 32-429 Y216C) with C185Y, D291E
Method in brief: as §1

[5] = biological target: T5, α-Gal A mutant form p.Ile317Thr (c.950 T > C) (Homo sapiens, UniProt P06280, I317T)
T5 construct: expressed in transfected cells; host or cells: HEK-293
T5 sequence (P06280 32-429 I317T): T1 sequence (P06280 32-429 Y216C) with C185Y, I286T
Method in brief: as §1

[6] = +10 μM migalastat, HEK-293 cell lysate, mean ± SEM, n = 20
[7] = HEK293, 10 μM migalastat minus baseline, read-out: Absolute increase at 10 μM (% WT)

OC[C@H]1NC[C@H](O)[C@@H](O)[C@H]1O [migalastat]
α-Gal A activity at 10 μM (fold over baseline) ([1]; 10 μM migalastat): 10.40 fold over baseline
+Migalastat α-Gal A activity [1, 6]: 7003 ± 305 nmol/mg/h
+Migalastat α-Gal A activity % WT [1, 6]: 20.7 ± 0.8 % WT
activation at 10 µM [1, 7]: 18.7%
α-Gal A activity at 10 μM (fold over baseline) ([2]; 10 μM migalastat): 10.17 fold over baseline
+Migalastat α-Gal A activity [2, 6]: 9244 ± 417 nmol/mg/h
+Migalastat α-Gal A activity % WT [2, 6]: 26.6 ± 1.4 % WT
activation at 10 µM [2, 7]: 24%
α-Gal A activity at 10 μM (fold over baseline) ([3]; 10 μM migalastat): 29.31 fold over baseline
+Migalastat α-Gal A activity [3, 6]: 6074 ± 212 nmol/mg/h
+Migalastat α-Gal A activity % WT [3, 6]: 19.1 ± 1.0 % WT and 19.1 ± 10 % WT
activation at 10 µM [3, 7]: 18.4%
α-Gal A activity at 10 μM (fold over baseline) ([4]; 10 μM migalastat): 3.98 fold over baseline
+Migalastat α-Gal A activity [4, 6]: 9554 ± 667 nmol/mg/h
+Migalastat α-Gal A activity % WT [4, 6]: 26.8 ± 1.3 % WT
activation at 10 µM [4, 7]: 20%
α-Gal A activity at 10 μM (fold over baseline) ([5]; 10 μM migalastat): 3.40 fold over baseline
+Migalastat α-Gal A activity [5, 6]: 7812 ± 530 nmol/mg/h
+Migalastat α-Gal A activity % WT [5, 6]: 23.6 ± 1.0 % WT
activation at 10 µM [5, 7]: 17%

— US20210038579A1, “Treatment Of Patients With Classic Fabry Disease” (Amicus Therapeutics, Inc., priority 2018, published 2021)
